Reference: patent publication US12485125B2, “Treatment with P2X3 modulators” (GlaxoSmithKline Intellectual Property (No. 3) Limited, priority 2019, dated 2025)

Tested on: syngeneic C57BL/6 mice
Assay: Syngeneic mouse model of endometriosis: mechanical allodynia by von Frey pain stimulation procedure
Type: in vivo
Conditions: 30 mg/kg i.p., day 4 and 5, measured one hour following treatment; p<0.05; FIG. 1A
Protocol: A P2X3 receptor antagonist compound of Formula (I) described herein was evaluated in the syngeneic mouse model of endometriosis.
C57BL/6 mice (8 weeks old) were anesthetized before making a vertical incision on the abdomen. The uterus was collected and divided into pieces of 5 millimeters which were then surgically sutured onto the peritoneum of syngeneic recipient animals. The recipient mice were also treated with oestradiol and the resulting lesions were allowed to develop for 11 weeks.
Baseline measurements were established on Day 0 by measuring mechanical allodynia in all transplanted mice using a von Frey pain stimulation procedure in accordance with the protocol described below. On Day 1 transplanted mice were injected with saline (i.p.) and mechanical allodynia was again measured using the von Frey filament method (control). […] Mechanical allodynia was evaluated using the von Frey pain stimulation procedure. […] The mice were euthanized on Day 6 and evaluated for the presence of endometriotic lesions.
Animals were placed in small cages with a mesh or otherwise penetrable bottom. The pain threshold was evaluated with von Frey filaments using the simplified up-down method, which determines the mechanical force required to elicit a positive pain response in animals. […]

CNC(=O)c1cc(F)c(-c2nc3cc(C)ccn3c2C[C@H]2CN(C(=O)OC)CCO2)c(F)c1 [Compound 1]
stimulus threshold (von Frey test; pressure stimulus required to elicit behavioral response, change from baseline Day 0): greater stimulus threshold
